Where a name gives a salt, the structure may show the parent alone.
system: isolated, donor-perfused rat hearts; assay: inhibition of coronary vasoconstriction induced by acetylcholine 0.3 μg in isolated, donor-perfused rat hearts; conditions: 30 μg, administered in the artery
Experimental: The effect of the compounds of the present invention to inhibit coronary vasoconstriction was studied. That vasoconstriction was induced by acetylcholine 0.3 μg in isolated, donor-perfused rat hearts (K. Sakai, Brit. J. Pharmacol., 68, 625-638, 1980), and determined by measuring the arterial perfusion pressure with a pressure transducer (Nihon Kohden MPU--0.5). The compounds of the present invention were administered in the artery in an amount between 30 and 60 μg.

Row | Compound | inhibition at 0.03 mg
1 | CC(C)c1cc2c(c(C(C)C)c1)Oc1ccccc1N(CCCN(C)C)C2=O [Comp. of Ex. 3] | ≥ 41%
2 | CCOC(=O)c1ccc2c(c1)N(CCCN(C)C)C(=O)c1cc(C(C)C)cc(C(C)C)c1O2 [Comp. of Ex. 14] | 31 to 40%
3 | CCOC(=O)c1ccc2c(c1)N(CCN(C)C)C(=O)c1cc(C(C)C)cc(C(C)C)c1O2 [Comp. of Ex. 1, 2,4-diisopropyl-10[2-(dimethylamino)ethyl]-8-ethoxycarbonyl-dibenz[b,f][1,4] oxazepine-11(10H)-one] | ≥ 41%
4 | CC(C)c1cc2c(c(C(C)C)c1)Oc1ccccc1N(CCN(C)C)C2=O [Comp. of Ex. 2] | 31 to 40%
5 | COc1ccc2c(c1)N(CCCN(C)C)C(=O)c1cc(C(C)C)cc(C(C)C)c1O2 [Comp. of Ex. 5] | 20 to 30%
6 | CCOC(=O)c1ccc2c(c1)N(CCN(C)C)C(=O)c1cc(C(C)(C)CC)ccc1O2 [Comp. of Ex. 8] | 31 to 40%
7 | CC(C)c1cc2c(c(C(C)C)c1)Oc1ccc(C(=O)O)cc1N(CCN(C)C)C2=O [Comp. of Ex. 15, 2,4-diisopropyl-10-[2-(dimethylamino)ethyl]-8-carboxy-dibenz[b,f][1,4]-oxazepine-11(10H)-one hydrochloride] | 20 to 30%
8 | CCOC(=O)c1ccc2c(c1)N(CCCN(C)C)C(=O)c1cc(C(C)(C)CC)ccc1O2 [Comp. of Ex. 9] | ≥ 41%
9 | CC(C)c1cc2c(c(C(C)C)c1)Oc1ccc(C(N)=O)cc1N(CCN(C)C)C2=O [Comp. of Ex. 17, 2,4-diisopropyl-10-[2-(dimethylamino)ethyl]-8-carbamoyl-dibenz[b,f][1,4]oxazepine-11(10H)-one] | 20 to 30%
10 | CCC(C)(C)c1ccc2c(c1)C(=O)N(CCCN(C)C)c1ccccc1O2 [Comp. of Ex. 10] | 20 to 30%

same assay, conditions: 60 μg, administered in the artery

Row | Compound | inhibition at 0.06 mg
11 | COc1ccc2c(c1)N(CCN(C)C)C(=O)c1cc(C(C)C)cc(C(C)C)c1O2 [Comp. of Ex. 4] | 20 to 30%

From patent US4379150A, “Dibenz[b,f][1,4]oxazepine derivatives, process for preparing the same, and pharmaceutical compositions comprising the same” (Chugai Seiyaku Kabushiki Kaisha, priority 1980, dated 1983)
